Source: US4599204A, “Oxalylamides useful as dental antiplaque agents and inhibitors of connective tissue destruction” (American Cyanamid Company, priority 1985, dated 1986)
Counter-ions that a name gives are not always drawn. One block for each compound: values may come before it.

Assays:
corneal ulceration [1] = conditions: alkali burned rabbit, applied to the eye; cited from earlier work
collagenase = conditions: literature / U.S. Pat. No. 4,297,372; cited from earlier work
corneal ulceration [2] = conditions: human; cited from earlier work
[3] = Binding to insoluble collagenous structures
[4] = mechanistic studies; cited from earlier work
[5] = molecular target: T1, human skin fibroblast collagenase (Homo sapiens, UniProt P03956); experiment: Collagenase Assay, Test Code 006: degradation of 14C-labeled native collagen fibrils by collagenase; format: biochemical; conditions: ratio of weight (μg) for 50% inhibition over that of 6,6'-[ureylenebis(m-phenylenecarbonylimino)]bis[4-hydroxy-2-naphthalenesulfonic acid]disodium salt; test conc.: 30 μg/ml; 37° C., 16 hours; >1 = less active
T1 construct: endogenous in cells; host or cells: human skin fibroblasts
T1 sequence (P03956 100-469): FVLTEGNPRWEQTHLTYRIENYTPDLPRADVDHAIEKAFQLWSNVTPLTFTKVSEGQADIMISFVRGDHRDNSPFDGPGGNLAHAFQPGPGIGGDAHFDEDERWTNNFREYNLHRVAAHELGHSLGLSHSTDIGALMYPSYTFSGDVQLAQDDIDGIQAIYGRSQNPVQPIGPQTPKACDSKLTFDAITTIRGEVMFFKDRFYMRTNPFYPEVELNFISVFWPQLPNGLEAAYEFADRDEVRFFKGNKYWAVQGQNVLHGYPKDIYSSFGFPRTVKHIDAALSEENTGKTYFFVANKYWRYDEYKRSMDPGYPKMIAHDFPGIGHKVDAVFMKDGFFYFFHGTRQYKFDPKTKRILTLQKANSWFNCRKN
Procedure: (i) Collagenase Assay--Test Code 006
A collagenase assay was performed by a modification of the method of Harper, et al., Biochem., 10, 3035 (1971). In a typical assay (total volume of 0.45 ml), 100 μl of the activated enzyme was added to the ^14 C-labeled collagen fibrils (250 μl) followed by 100 μl of 50 mM cacodylate, pH 7.4, containing 5 mM calcium chloride. After incubation at 37° C. for 16 hours, the tubes were centrifuged in a Beckman microfuge for five minutes at full speed. An aliquot (200 μl) of the supernatant, representing collagenase digestion products of the fibril, was assayed for radioactivity. The effect of the test compound on collagen degradation by collagenase was examined as follows:
Varying concentrations of the test compound (in distilled water) were added to the assay tubes containing active collagenase (total volume 450 μl) and after 16 hours the amount of radioactivity in the supernatant was determined. Appropriate blanks and trypsin controls were run in parallel.
The result is expressed as an ID50 collagenase value which represents a ratio of the weight (μg) of the representative compound required for 50% inhibition of collagenase over the weight (μg) of 6,6,-[ureylenebis(m-phenylenecarbonylimino)]bis[4-hydroxy-2-naphthalenesulfonic acid]disodium salt required for 50% inhibition of collagenase.

[6] = Binding (competition) assay with 14C-6,6'-[ureylenebis(m-phenylenecarbonylimino)]bis[4-hydroxy-2-naphthalenesulfonic acid]disodium salt on tooth powder; conditions: relative to 6,6'-[ureylenebis(m-phenylenecarbonylimino)]bis[4-hydroxy-2-naphthalenesulfonic acid]disodium salt; 1 mg tooth powder, PBS, 37° C., 60 minutes; >1 = less efficient
Excerpt: Using (radioactive) ^14 C-6,6'-[ureylenebis(m-phenylenecarbonylimino)]bis[4-hydroxy-2-naphthalenesulfonic acid]disodium salt a binding (competition) assay procedure is established which involves an insoluble substrate such as tooth powder which will bind the ^14 C-6,6'-[ureylenebis(m-phenylenecarbonylimino)]bis[4-hydroxy-2-naphthalenesulfonic acid]disodium salt. The amount of ^14 C-6,6'-[ureylenebis(m-phenylenecarbonylimino)]bis[4-hydroxy-2-naphthalenesulfonic acid]disodium salt bound is determined by washing away the unbound radioactive compound and counting CPM (counts per minute) of the insoluble tooth powder/^14 C-6,6'-[ureylenebis(m-phenylenecarbonylimino)]bis[4-hydroxy-2-naphthalenesulfonic acid]disodium salt complex. […] The inhibiting effect of the test compound on binding compared to non-radioactive 6,6'-[ureylenebis(m-phenylenecarbonylimino)]bis[4-hydroxy-2-naphthalenesulfonic acid]disodium salt was determined as follows: A one mg amount of tooth powder was incubated in one ml of phosphate buffered saline (PBS) with 10 μg of ^14 C-6,6'-[ureylenebis(m-phenylenecarbonylimino)]bis[4-hydroxy-2-naphthalenesulfonic acid]disodium salt and varying dose amounts (ranging from 0 to 2 mg) of the same cold (non-radioactive) compound. […]

Compound: O=C([O-])CN(CCN(CC(=O)[O-])CC(=O)[O-])CC(=O)[O-].[Ca+2].[Ca+2] [Calcium ethylenediaminetetraacetate]
reduction of frequency of ulceration (corneal ulceration [1]): reduce the frequency of ulceration

Compound: sodium auriothiomalate
collagenase inhibition (in words) (collagenase): collagenase inhibitors

Compound: CC(=O)N[C@@H](CS)C(=O)O [acetylcysteine]
effectiveness in treatment of acute and chronic corneal ulceration (corneal ulceration [2]): effective in the treatment of acute and chronic corneal ulceration
reduction of frequency of ulceration (corneal ulceration [1]): reduce the frequency of ulceration

Compound: O=C(Nc1cccc(C(=O)Nc2ccc3cc(S(=O)(=O)O)cc(O)c3c2)c1)Nc1cccc(C(=O)Nc2ccc3cc(S(=O)(=O)O)cc(O)c3c2)c1 [6,6'-[ureylenebis(m-phenylenecarbonylimino)]bis[4-hydroxy-2-naphthalenesulfonic acid]disodium salt]
collagenase inhibition (in words) (collagenase): established as an inhibitor of the degradation of collagen
binding to insoluble collagenous structures [3]: will bind to insoluble collagenous structures such as teeth, dentin, gingiva and the like
character of binding (saturability, reversibility) [3]: saturable and reversible

Compound: F [Fluoride]
binding to enamel [4]: binds to enamel

Compound: α2 -macroglobulin: Naturally occurring collagenase inhibitors include the serum components α2 -macroglobulin
collagenase inhibition (in words) (collagenase): collagenase inhibitors

Compound: c1cnc2c(c1)ccc1cccnc12 [1,10-phenanthroline]
collagenase inhibition (in words) (collagenase): collagenase inhibitors

ID50 Collagenase Ratio [5]: 1.10
ID50 Binding Ratio [6]: 1.00
Compound: O=C(Nc1cccc(C(=O)Nc2ccc3cc(S(=O)(=O)O)cc(O)c3c2)c1)C(=O)Nc1cccc(C(=O)Nc2ccc3cc(S(=O)(=O)O)cc(O)c3c2)c1 [6,6'-[Oxalylbis(imino-m-phenylenecarbonylimino)]bis-[4-hydroxy-2-naphthalenesulfonic acid]disodium salt]

Compound: Cc1cc(-c2ccc(/N=N/c3c(S(=O)(=O)O)cc4cc(S(=O)(=O)O)cc(N)c4c3O)c(C)c2)ccc1/N=N/c1c(S(=O)(=O)O)cc2cc(S(=O)(=O)O)cc(N)c2c1O [trypan blue]
collagenase inhibition (in words) (collagenase): inhibiting the activity of collagenase, or a proteinase contaminant in the collagenase preparation

Compound: O[C@H](CS)[C@H](O)CS (racemic) [dithiothreitol]
collagenase inhibition (in words) (collagenase): collagenase inhibitors

Compound: Cc1ccc(C(=O)Nc2ccc(S(=O)(=O)O)c3cc(S(=O)(=O)O)cc(S(=O)(=O)O)c23)cc1NC(=O)c1cccc(NC(=O)Nc2cccc(C(=O)Nc3cc(C(=O)Nc4ccc(S(=O)(=O)O)c5cc(S(=O)(=O)O)cc(S(=O)(=O)O)c45)ccc3C)c2)c1 [Suramin]
collagenase inhibition (in words) (collagenase): not inhibiting the action of collagenase

Compound: N[C@@H](CS)C(=O)O [cysteine]
effectiveness in treatment of acute and chronic corneal ulceration (corneal ulceration [2]): effective in the treatment of acute and chronic corneal ulceration
collagenase inhibition (in words) (collagenase): collagenase inhibitors
